Tested on: sweet taste
Experiment: Sensory testing by a group of about 5 panelists (sweetness, licorice taste, lingering aftertaste)
Format: in vivo
Details: for Lingering: panelists' rating of lingering aftertaste on a scale from 1 to 10; for Licorice / Sweet: panelists' rating on a scale from 1 to 10
Description: Sensory testing was conducted by a group of about 5 panelists. […] The panelists rated the sweetness, licorice taste, and lingering aftertaste of Isomogroside IVE in comparison to Mogroside V on a scale from 1 to 10.

| SMILES | Lingering (250 ppm) | Licorice (250 ppm) | Sweet (250 ppm) | licorice taste and lingering aftertaste in comparison to Mogroside V (250 ppm, panelists' perception) | sweetness in comparison to Mogroside V (250 ppm, panelists' perception) | times sweeter than sucrose (tasted at 250 ppm in a water base) |
| --- | --- | --- | --- | --- | --- | --- |
| C[C@H](CC[C@@H](O[C@@H]1O[C@H](CO[C@@H]2O[C@H](CO)[C@@H](O)[C@H](O)[C@H]2O)[C@@H](O)[C@H](O)[C@H]1O[C@@H]1O[C@H](CO)[C@@H](O)[C@H](O)[C@H]1O)C(C)(C)O)[C@H]1CC[C@@]2(C)[C@@H]3CC=C4[C@@H](CC[C@H](O[C@@H]5O[C@H](CO[C@@H]6O[C@H](CO)[C@@H](O)[C@H](O)[C@H]6O)[C@@H](O)[C@H](O)[C@H]5O)C4(C)C)[C@]3(C)[C@H](O)C[C@]12C [Mogroside V, reference compound] | 4.6 | 3.7 | 5.1 |  |  |  |
| C[C@H](CC[C@@H](O[C@@H]1O[C@H](CO)[C@@H](O)[C@H](O)[C@H]1O[C@@H]1O[C@H](CO)[C@@H](O)[C@H](O)[C@H]1O)C(C)(C)O)[C@H]1CC[C@@]2(C)[C@@H]3CC=C4[C@@H](CC[C@H](O[C@@H]5O[C@H](CO)[C@@H](O[C@@H]6O[C@H](CO)[C@@H](O)[C@H](O)[C@H]6O)[C@H](O)[C@H]5O)C4(C)C)[C@]3(C)[C@H](O)C[C@]12C [Isomogroside IVE, (1S,4R,9beta,11alpha,24R)-1-{[4-O-(beta-D-glucopyranosyl)-beta-D-glucopyranosyl]oxy}-11,25-dihydroxy-9,10,14-trimethyl-4,9-cyclo-9,10-secocholest-5-en-24-yl 2-O-beta-D-glucopyranosyl-beta-D-glucopyranoside] | 5.4 | 4.5 | 7.0 | no statistically significant difference | somewhat sweeter than Mogroside V | 200-300 times |

From patent US20220017564A1, “MOGROSIDE COMPOUNDS AND USES THEREOF” (Firmenich SA, priority 2019, published 2022)
